Laboratory results: article PMC5778463 (Nucleic Acids Research, 2017)
Where “and” joins values, the source holds several entries; their conditions need not be identical. Identical values can stand only once.

Legend:
influenza B strains = conditions: cited from earlier work
[1] = target: B/Memphis cap-midlink double domain (Influenza B virus, UniProt Q5V8X3); test: biochemical; type: binding, influenza B/Memphis/13/03
[2] = system: isolated influenza A PB2 cap-binding domain; conditions: cited from earlier work

Sequence of B/Memphis cap-midlink double domain (Q5V8X3 249-540 limits assumed): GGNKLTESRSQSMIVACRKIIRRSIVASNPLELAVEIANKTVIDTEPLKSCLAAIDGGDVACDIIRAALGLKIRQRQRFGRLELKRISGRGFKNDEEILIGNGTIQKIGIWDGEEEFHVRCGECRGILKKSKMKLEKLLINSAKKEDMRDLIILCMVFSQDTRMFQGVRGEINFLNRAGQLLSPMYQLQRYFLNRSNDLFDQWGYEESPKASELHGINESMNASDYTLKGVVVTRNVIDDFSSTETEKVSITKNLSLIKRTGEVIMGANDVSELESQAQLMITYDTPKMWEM

O=C(O)[C@H]1C2CCC(CC2)[C@@H]1Nc1nc(-c2c[nH]c3ncc(F)cc23)ncc1F [VX-787]
potency against influenza B strains (influenza B strains): no potency | Kd [1]: 1200 nM | times tighter binding than m^7GTP [2]: ~60 times | Kd ([2]; read-out: affinity to cap-binding domain alone): ~24 nM and 24 nM
